One may read the MIC as the least concentration at which growth counts as inhibited. For orientation: solubility means how much of the substance goes into solution per volume. A higher solubility goes with much dissolved substance. The AUC is concentration integrated over time. Low values mean less exposure, high ones more exposure. The term Cmax denotes the highest concentration seen after dosing. The half-life is how long it takes for the measured level to halve.

For one data set, the system named is S. aureus Smith. As to the kind of experiment: Protective Dose50 in mice, S. aureus Smith. It is filed as in vivo. The following applies: Staphylococcus aureus, read-out: PD50, S. aureus Smith. The protocol: (§1) Table 2, below, gives the Protective Dose50 (PD50) in mice for a number of the compounds of Formula I against selected microorganisms. Table 3 gives blood levels of various compounds of Formula I upon intramuscular administration of the test compounds to mice at a dosage of 20 mg/kg.

The test system of data set [1] is Ps. aeruginosa (7 strains). As to the kind of experiment: MIC, two-fold serial agar dilution, group (G-)-III. It is filed as cell-based. To be noted: Pseudomonas aeruginosa, Mueller-Hinton agar, read-out: Geometric Mean of MIC, (G-)-III. The protocol: (§2) In the primary evaluation of the compounds of this invention, the Minimum Inhibitory Concentrations (MIC's) of the compounds were determined by the two-fold serial agar dilution method in Mueller-Hinton agar against 32 strains of test organisms in six groups.
(G-)III: Ps. aeruginosa (7 strains)

Data set [2] relates to M. morganii (1 strain), Ent. cloacae (2 strains) and Ser. marcescens (2 strains). As to the kind of experiment: MIC, two-fold serial agar dilution, group (G-)-II. In kind it is cell-based. To be noted: Mueller-Hinton agar; 5 strains; read-out: Geometric Mean of MIC, (G-)-II. The protocol:
as §2
(G-)II: M. morganii (1 strain), Ent. cloacae (2 strains) and Ser.
A general note: Agar dilution tests growth on a series of plates holding different concentrations.

For data set [3], the system named is Penicillinsensitive S. aureus (5 strains). The experiment in a line: MIC, two-fold serial agar dilution, group (G+)-Ia. It is filed as cell-based. The following applies: Staphylococcus aureus, read-out: Geometric Mean of MIC, (G+)-Ia. The procedure:
as §2
(G+)Ia: Penicillinsensitive S. aureus (5 strains)

Data set [4] has as its system Cephalothinsensitive E. coli (2 strains), Kl. pneumoniae (1 strain) and Pr. mirabilis (2 strains). As to the kind of experiment: MIC, two-fold serial agar dilution, group (G-)-Ia. It is filed as cell-based. To be noted: Mueller-Hinton agar; 5 strains; read-out: Geometric Mean of MIC, (G-)-Ia. The protocol:
as §2
(G+)Ia: Cephalothinsensitive E. coli (2 strains), Kl. pneumoniae (1
strain) and Pr. mirabilis (2 strains)

The test system of data set [5] is Cephalothinresistant E. coli (3 strains) and Kl. pneumoniae (2 strains). The experiment in a line: MIC, two-fold serial agar dilution, group (G-)-Ib. To be noted: Escherichia coli, read-out: Geometric Mean of MIC, (G-)-Ib, Mueller-Hinton agar; 5 strains. It is filed as cell-based. The procedure: as §2
(G-)Ib: Cephalothinresistant E. coli (3 strains) and Kl. pneumoniae (2

A further data set has as its system P. aeruginosa A9843A. As to the kind of experiment: Protective Dose50 in mice, P. aeruginosa A9843A. In kind it is in vivo. The following applies: Pseudomonas aeruginosa, read-out: PD50, P. aeruginosa A9843A. The protocol:
as §1

Data set [6] concerns Penicillinresistant S. aureus (5 strains). The experiment in a line: MIC, two-fold serial agar dilution, group (G+)-Ib. In kind it is cell-based. The following applies: Staphylococcus aureus, Mueller-Hinton agar; 5 strains; read-out: Geometric Mean of MIC, (G+)-Ib. The procedure: as §2
(G+)Ib: Penicillinresistant S. aureus (5 strains)

The next data set deals with E. coli Juhl. As to the kind of experiment: Protective Dose50 in mice, E. coli Juhl. To be noted: Escherichia coli, read-out: PD50, E. coli Juhl. It is filed as in vivo. The procedure: as §1
Data set [7] can be described thus: solubility of crystalline zwitterion in saline. It is filed as physicochemical. To be noted: crystalline zwitterion form.
Data set [8] in a line: blood levels upon intramuscular administration to mice. In kind it is in vivo. The following applies: mouse, im, 20 mg/kg. The procedure: as §1

≈ marks a conversion by molar mass, not a printed value.

For `CON=C(C(=O)NC1C(=O)N2C(C(=O)[O-])=C(/C=C/C[n+]3cccc(C(N)=O)c3)CSC12)c1nsc(N)n1` (centres unmarked) [Compound I-1G, 7-[2-(5-Amino-1,2,4-thiadiazol-3-yl)-2-methoxyiminoacetamido]-3-[3-(3-carbamoylpyridinio)-1-propen-1-yl]-3-cephem-4-carboxylate], the results for the ED50 in the data set with S. aureus Smith, in the data set with P. aeruginosa A9843A and with E. coli Juhl were 0.96 mg/kg, 5.92 mg/kg and 0.021 mg/kg, respectively. Besides, the minimum inhibitory concentration (MIC) in [1] came to 1.4 µg/mL (≈ 2.57 µM); in data set [2], 0.1 µg/mL (≈ 0.184 µM); in [3] it was 0.2 µg/mL (≈ 0.367 µM); in data set [4], 0.0094 µg/mL (≈ 0.0173 µM); in data set [5], 0.033 µg/mL (≈ 0.0606 µM); in data set [6], 0.35 µg/mL (≈ 0.643 µM).

As to `CON=C(C(=O)NC1C(=O)N2C(C(=O)[O-])=C(/C=C/C[n+]3ccc(C(N)=O)cc3)CSC12)c1nsc(N)n1` (centres unmarked) [Compound I-1H, 7-[2-(5-Amino-1,2,4-thiadiazol-3-yl)-2-methoxyiminoacetamido]-3-[3-(4-carbamoylpyridinio)-1-propen-1-yl]-3-cephem-4-carboxylate], the ED50 with S. aureus Smith was 0.39 mg/kg; in the data set on P. aeruginosa A9843A, 3.9 mg/kg; in the data set with E. coli Juhl, 0.015 mg/kg. Moreover, the MIC amounted to 0.97 µg/mL (≈ 1.78 µM) in data set [1]; 0.1 µg/mL (≈ 0.184 µM) in [2]; 0.2 µg/mL (≈ 0.367 µM) in data set [3]; 0.013 µg/mL (≈ 0.0239 µM) in data set [4]; 0.043 µg/mL (≈ 0.079 µM) in data set [5]; 0.4 µg/mL (≈ 0.735 µM) in [6]. For the same compound, the “solubility in water (in words)” value in [7] is recorded as “slightly soluble in water”. The compound further came in with a solubility in data set [7] (in saline at 23° C.) of 6000 µg/mL (≈ 11000 µM). In addition, in data set [8], the AUC is 14000 ng·h/mL. This compound had a Cmax in [8] of 23000 ng/mL. The same compound registered a half-life in [8] of 16 min.

(Values after patent US4751295A, “Cephalosporin derivatives” (Bristol-Myers Company, priority 1986, dated 1988).)
